Laboratory results as given in patent US20060004012A1, “Compounds, pharmaceutical compositions and methods for use in treating metabolic disorders” (priority 2004, published 2006).

Target: T1, human GPR40 (Homo sapiens, UniProt O14842)
T1 construct: expressed in transfected cells; host or cells: CHO cells, transiently transfected with Lipofectamine 2000 and co-transfected with an aequorin expression vector (Euroscreen)
Test: Cell-based aequorin assay using human GPR40
Settings: activation of human GPR40; CHO cells transfected with GPR40 and aequorin expression vectors; aequorin luminescence, area-under-curve 2-20 seconds; read-out: Relative EC50
Experimental: A cell-based aequorin assay may be employed to characterize the modulatory activity of compounds on the GPR40 signaling pathway. In an exemplary assay, CHO cells are transfected in a 15 cm plated containing 14 million cells with 5 μg of GPR40 expression vector and 5 μg of Aequorin expression vector (Euroscreen) using Lipofectamine 2000 (Invitrogen). After 17-24 hours post-transfection, cells are washed with phosphate buffered saline (PBS) and detached from the tissue culture dish with 2 mL of trypsin (0.25%(w/v)). Trypsinization is halted with 28 mL of Hanks Buffered Salt Solution containing 20 mM Hepes (H/HBSS) and 0.01% fatty acid-free bovine serum albumin (BSA) or 0.625% fatty acid-free human serum albumin (HSA). Coelantrazine is added to 1 ug/mL and the cells are incubated for 2 hours at room temperature. Cells are gently mixed every 15 minutes. Compounds are dissolved in dimethyl sulfoxide for preparation of 10 mM stock solutions. Compounds are diluted in H/HBSS containing either 0.01% BSA or 0.625% HSA. Serial dilutions of the test compounds are prepared to determine dose response.
Aequorin luminescence measurements are made using an EG&G Berthold 96-well luminometer and the response is measured over a 20 second interval after cells and compounds were mixed. The area-under-curve from 2-20 seconds is plotted to determine dose reponse. The EC50 (effective concentration to reach 50% maximal response) is determined from the dose response plot. […]

T1 sequence (O14842 whole entry): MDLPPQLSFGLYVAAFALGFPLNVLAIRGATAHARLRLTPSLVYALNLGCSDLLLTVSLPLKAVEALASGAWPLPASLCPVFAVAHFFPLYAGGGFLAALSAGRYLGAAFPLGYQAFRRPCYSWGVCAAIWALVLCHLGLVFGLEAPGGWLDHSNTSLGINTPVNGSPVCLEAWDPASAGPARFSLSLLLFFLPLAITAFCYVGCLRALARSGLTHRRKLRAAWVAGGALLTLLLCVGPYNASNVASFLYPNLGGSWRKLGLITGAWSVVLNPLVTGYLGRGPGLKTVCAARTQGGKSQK

Compound | EC50 [nM]
CC(C)(C)OC(=O)N[C@@H](CC(=O)O)c1ccc(OCc2cccc(Oc3ccc(F)cc3)c2)cc1 [Compound 42.11, (S)-3-tert-Butoxycarbonylamino-3-{4-[3-(4-fluoro-phenoxy)-benzyloxy]-phenyl}-propionic acid] | 100 to 1000
CC#CC(CC(=O)O)c1ccc(OCc2cccc(-c3ccccc3C(F)(F)F)c2)cc1 (centres unmarked) [Compound 6.8] | 10 to 100
CC#CC(CC(=O)O)c1ccc(OCc2ccc(-n3cncn3)cc2)cc1 (centres unmarked) [Compound 79] | 1000 to 10000
COc1ccc(COc2ccc(C(C#C[Si](C)(C)C)CC(=O)O)cc2)cc1 (centres unmarked) [Compound 14.1] | 1000 to 10000
CC#CC(CC(=O)O)c1ccc(OCc2cnn(-c3ccc(F)cc3)c2C)cc1 (centres unmarked) [Compound 11.1] | 100 to 1000
CC#CC(CC(=O)O)c1ccc(OCc2cccc(-c3ccccc3)c2)cc1 (centres unmarked) [Compound 6.1] | 10 to 100
C=CCC(CC(=O)O)c1ccc(OCc2ccc(OC)cc2)cc1 (centres unmarked) [Compound 34.4] | 1000 to 10000
CC#CC(CC(=O)O)c1ccc(OCCc2ccccc2)cc1 (centres unmarked) [Compound 17.8] | 1000 to 10000
CC#CC(CC(=O)O)c1ccc(OCc2nc(-c3ccc(C(F)(F)F)cc3)oc2C)cc1 (centres unmarked) [Compound 18, 3-{4-[5-Methyl-2-(4-trifluoromethyl-phenyl)-oxazol-4-ylmethoxy]-phenyl}-hex-4-ynoic acid] | 10 to 100
CC#CC(CC(=O)O)c1ccc(OCc2cccc(-c3cccc(C(F)(F)F)c3)c2)cc1 (centres unmarked) [Compound 6.9] | 10 to 100
COCC#CC(CC(=O)O)c1ccc(OCc2ccc(OC)cc2)cc1 (centres unmarked) [Compound 14.5] | 1000 to 10000
CC#CC(CC(=O)Nc1nnn[nH]1)c1ccc(OCc2ccc(OC)cc2)cc1 (centres unmarked) [Compound 25.1] | 1000 to 10000
COc1ccc(COc2ccc(C(C)CC(=O)O)cc2)cc1 (centres unmarked) [Compound 14.4] | > 10000
CC#CC(Cc1nnn[nH]1)c1ccc(OCc2ccccc2C)cc1 (centres unmarked) [Compound 23, 5-{2-[4-(2-Methyl-benzyloxy)-phenyl]-pent-3-ynyl}-1H-tetrazole] | 1000 to 10000
O=C(O)CC(c1ccc(OCc2cccc(-c3ccc(C(F)(F)F)cc3)c2)cc1)c1nn[nH]n1 (centres unmarked) [Compound 88.7] | 1000 to 10000
CC#CC(CC(=O)O)c1ccc(OCc2ccc(-c3ccccc3)cc2)cc1 (centres unmarked) [Compound 7.3] | 1000 to 10000
Cc1cnc(C(CC(=O)O)c2ccc(OCc3cccc(-c4ccc(C(F)(F)F)cc4)c3)cc2)s1 (centres unmarked) [Compound 70.1] | 1000 to 10000
COc1cccc(CN(Cc2cccc(OC)c2)c2ccc(N(CC(=O)O)c3ccccc3)cc2)c1 [Compound 82.1] | < 10
O=C(O)CC1(c2ccc(OCc3cccc(-c4ccc(C(F)(F)F)cc4)c3)cc2)CC1 [Compound 89] | 1000 to 10000
CC#CC(CC(=O)O)c1ccc(OCc2ccc(-c3ccc(OCC)cc3)cc2)cc1 (centres unmarked) [Compound 7.9] | 100 to 1000
O=C(O)C[C@H](NC(=O)CCc1ccccc1)c1ccc(OCc2cccc(Oc3ccc(F)cc3)c2)cc1 [Compound 88.6] | > 10000

Compound | EC50 [nM]
CC#CC(CC(=O)O)c1ccc(NCc2cccc(OC)c2)cc1 (centres unmarked) [Compound 36.1] | 100 to 1000
O=C(O)CC(c1ccc(OCc2cccc(Oc3ccccc3)c2)cc1)c1cccc(Cl)c1 (centres unmarked) [Compound 84.6] | 100 to 1000
O=C(O)CC(c1ccc(OCc2cccc(-c3ccc(C(F)(F)F)cc3)c2)cc1)c1cccnc1 (centres unmarked) [Compound 70.2] | 100 to 1000
COc1cccc(CNc2ccc(N(CC(=O)O)c3ccccc3)cc2)c1 [Compound 82.2] | < 10
CC#CC(CC(=O)O)c1ccc(OCc2ccc(-c3ccccc3OCC)cc2)cc1 (centres unmarked) [Compound 7.5] | 10 to 100
O=C(O)CC(c1ccccc1)c1ccc(OCc2cccc(Oc3ccccc3)c2)cc1 (centres unmarked) [Compound 84.1] | 10 to 100
CC#CC(CC(=O)O)c1ccc(OCc2ccc(Cc3ccccc3)cc2)cc1 (centres unmarked) [Compound 10.6] | 10 to 100
CC#CC(CC(=O)O)c1ccc(OCc2ccc(-c3cccnc3)cc2)cc1 (centres unmarked) [Compound 10.12] | 1000 to 10000
CC#CC(CC(=O)O)c1ccc(OCc2cc(-c3ccccc3)no2)cc1 (centres unmarked) [Compound 77] | 100 to 1000
CC#CC(CC(=O)O)c1ccc(OCc2sc(-c3ccccc3)nc2C)cc1 (centres unmarked) [Compound 9.3] | 10 to 100
COc1ccc(COc2ccc(C(CC(=O)O)c3ccc(F)cc3)cc2)cc1 (centres unmarked) [Compound 14.2] | 100 to 1000
CC#CC(CC(=O)O)c1ccc(OCc2nn(-c3ccccc3)nc2C)cc1 (centres unmarked) [Compound 26, 3-[4-(5-Methyl-2-phenyl-2H-[1,2,3]triazol-4-ylmethoxy)-phenyl]-hex-4-ynoic acid] | 10 to 100
CC#CC(CC(=O)O)c1ccc(N(Cc2cccc(OC)c2)Cc2cccc(OC)c2)cc1 (centres unmarked) [Compound 36.2] | 100 to 1000
C#CC(CC(=O)O)c1ccc(OCc2ccc(OC)cc2)cc1 (centres unmarked) [Compound 41] | 100 to 1000
CC#CC(CC(=O)O)c1ccc(OCc2csc(-c3ccc(C(F)(F)F)cc3)n2)cc1 (centres unmarked) [Compound 8.1] | 10 to 100
O=C(O)C[C@H](NC(=O)Cc1ccccc1)c1ccc(OCc2cccc(Oc3ccc(F)cc3)c2)cc1 [Compound 88.4] | > 10000
CN(C)[C@@H](CC(=O)O)c1ccc(OCc2cccc(Oc3ccc(F)cc3)c2)cc1 (stereo in doubt) [Compound 42.14, 3-Dimethylamino-3-{4-[3-(4-fluoro-phenoxy)-benzyloxy]-phenyl}-propionic acid] | 100 to 1000
CC#CC(CC(=O)O)c1ccc(OCc2ccc(OC)cc2)cc1 (racemic) [Compound 12, (±)-3-(4-[(4-methoxyphenyl)methoxy]phenyl)-hex-4-ynoic acid] | 100 to 1000
O=C(O)CC(c1ccc(F)cc1)c1ccc(OCc2cccc(-c3ccc(C(F)(F)F)cc3)c2)cc1 (centres unmarked) [Compound 46.1, 3-(4-fluorophenyl)-3-[4-(4′-trifluoromethyl-biphenyl-3-ylmethoxy)-phenyl]-propionic acid] | 100 to 1000
OC(O)CC(c1ccc(OCc2cccc(-c3ccc(C(F)(F)F)cc3)c2)cc1)C1CC1 (centres unmarked) [Compound 91] | 1000 to 10000
